Results taken from EPA's ToxValDB 9.5.
Values joined by “and” are separate entries in the source; they are usually repeats but may differ in a detail not shown here. Equal values may be shown once. One block for each compound: values may come before it.

Columns and labels:
Rattus norvegicus [1] = test system: Rattus norvegicus
Rattus norvegicus [2] = test system: Rattus norvegicus; remark: listed apart in the source
Rattus norvegicus [3] = conditions: oral, M/F
Mus musculus = conditions: uterotrophic, Active
Rattus norvegicus [4] = conditions: for LEL: uterotrophic, Active
Rattus norvegicus [5] = conditions: oral; for NOAEL: diet
[6] = chronic, oral, gavage, F, increased kidney weight in female rats
[7] = subchronic, duration: 13 weeks, inhalation, M/F, increased kidney weight in female rats and adrenal weight in male and female rats
[8] = duration: 4 days, injection, subcutaneous
[9] = Hershberger, duration: 10 days, oral, gavage, Sprague-Dawley, active + Androgenic + Negative + androgenic
[10] = chronic, duration: 1 years, oral, blood pressure and body weight histopathological liver, kidney and spleen
[11] = duration: 3 days, injection, intraperitoneal
[12] = duration: 14 days, injection, subcutaneous
[13] = chronic, duration: 2 years, oral, diet, M/F, reduced weight gains hematological females
[14] = duration: 3 days, injection, subcutaneous

SMILES: COC(=O)c1ccc(C(=O)OC)cc1 [Dimethyl terephthalate]
LOAEL (Rattus norvegicus [1]; chronic, oral, diet, M/F, chronic kidney inflammation): 125 mg/kg-day
LOAEL (Rattus norvegicus [2]; chronic, duration: 103 weeks, oral, diet, Kidney: Inflammation): 125 mg/kg-day
NOAEL (Rattus norvegicus [3]; subchronic, duration: 90 days, diet, Body Weight Changes: Weight gain decrease + Histopathology: Liver: Hepatocyte hypertrophy, diffuse): 480 mg/kg-day

SMILES: C=C(C)c1ccccc1 [alpha-Methylstyrene]
NOEL (Rattus norvegicus [2]; chronic, duration: 197 days, inhalation, intermittent, Kidney: Increased weight + Liver: Increased weight): 970 mg/m3

SMILES: CC(C)c1ccccc1 [Cumene]
LOAEL (Rattus norvegicus [1]; [6]): 331 mg/kg-day
NOAEL (Rattus norvegicus [1]; [6]): 110 mg/kg-day
LOAEL (Rattus norvegicus [1]; [7]): 5910 mg/m3
NOAEL (Rattus norvegicus [1]; [7]): 2440 mg/m3
NOAEL (Rattus norvegicus [2]; chronic, duration: 194 days, oral, gavage, Kidney: Increased weight): 154 mg/kg-day
NOAEL (Rattus norvegicus [2]; short-term, duration: 4 weeks, inhalation, intermittent, Central nervous system: Involvement + Nose: Irritation): 517 mg/m3

SMILES: C=CBr [Vinyl bromide]
LOAEL (Rattus norvegicus [1]; chronic, inhalation, M/F, hypertrophy, basophilic and eosinophilic foci, in the liver): 43 mg/m3
LOAEL (Rattus norvegicus [2]; chronic, duration: 24 months, inhalation, intermittent, Liver: Basophilic foci + Liver: Eosinophilic foci + Liver: Hypertrophy): 42.4 mg/m3

SMILES: ClC1=C(Cl)[C@]2(Cl)C3C(Cl)C(Cl)CC3[C@@]1(Cl)C2(Cl)Cl (stereo partly drawn) [Chlordane]
NOEL (Rattus norvegicus [2]; chronic, duration: 130 weeks, oral, diet, Liver: Hypertrophy): 0.055 mg/kg-day

LEL (Mus musculus; duration: 0 days, oral, diet): 0.0001 ppm
LEL (fractional dose of pill) (Mus musculus; duration: 3 days, oral): 0.001
LEL (Mus musculus; [8]): 0.002 mg/kg-day
LEL (Rattus norvegicus [4]; duration: 1 days, dermal): 0.125 mg/L
LEL (Rattus norvegicus [4]; duration: 3 days, oral, diet): 0.001 mg/kg-day
LEL (Rattus norvegicus [4]; duration: 4 days, oral): 0.03 mg/kg-day
LEL (Rattus norvegicus [4]; duration: 4 days, oral, diet): 0.000342 mg/kg-day
LEL (Rattus norvegicus [4]; duration: 21 days, oral): 0.01 mg/kg-day
LEL (Rattus norvegicus [4]; duration: 28 days, oral): 0.2 mg/kg-day
SMILES: C#C[C@]1(O)CC[C@H]2[C@@H]3CCc4cc(O)ccc4[C@H]3CC[C@@]21C [17alpha-Ethinylestradiol]
LOEL (Rattus norvegicus [4]; [9]): 50 mg/kg-day
NOEL (Rattus norvegicus [4]; [9]): 10 mg/kg-day
NOEL (Rattus norvegicus [3]; short-term, duration: 28 days, gavage, Crj:CD, Body Weight Changes: decrease + Food Consumption: decrease + Blood Chemistry: A/G decrease >0 Cho decrease 0 Alp increase, gamma-GTP …): < 0.01 mg/kg-day

LEL (Mus musculus; duration: 3 days, dermal): 100 mg/day
LEL (Rattus norvegicus [4]; duration: 3 days, oral): 0.16 mg/kg-day
SMILES: O=C(OCc1ccccc1)c1ccc(O)cc1 [Benzyl 4-hydroxybenzoate]

SMILES: Cc1ccc(O)cc1C [3,4-Dimethylphenol]
LOAEL (Rattus norvegicus [1]; [10]): 14 mg/kg-day
NOEL (Rattus norvegicus [1]; [10]): 1.4 mg/kg-day
NOEL (Rattus norvegicus [2]; chronic, duration: 8 months, oral, Cardiovascular system: Altered blood pressure + Organs, major: Lesions + Whole body: Decreased weight): 1.4 mg/kg-day

LEL (Mus musculus; duration: 0.17 days, injection, subcutaneous): 0.00027 mg
LEL (Mus musculus; [11]): 1.25 mg/day
LEL (Mus musculus; [8]): 2 mg/day
LEL (Mus musculus; duration: 4 days, oral): 100 mg/kg-day
LEL (Mus musculus; duration: 4 days, oral, diet): 2.5 mg/day
LEL (Mus musculus; duration: 6 days, oral, diet): 5.77 mg
LEL (Mus musculus; duration: 7 days, oral): 200 mg/kg-day
LEL (Mus musculus; duration: 10 days, injection, subcutaneous): 0.5 mg/day
LEL (Mus musculus; [12]): 2 mg/day and 3 mg/day and 5 mg/day
LEL (Mus musculus; duration: 28 days, injection, subcutaneous): 25 mg/kg-day
LEL (Rattus norvegicus [4]; duration: 0 days, injection, intraperitoneal): 1.25 mg
LEL (Rattus norvegicus [4]; duration: 1 days, injection, intraperitoneal): 0.4 mg
LEL (Rattus norvegicus [4]; duration: 3.5 days, injection, subcutaneous): 1.25 mg/day
LEL (Rattus norvegicus [4]; duration: 4 days, oral): 100 mg/kg-day
LEL (Rattus norvegicus [4]; duration: 5 days, oral, diet): 375 mg/kg-day
LEL (Rattus norvegicus [4]; duration: 7 days, oral): 60 mg/kg-day
LEL (Rattus norvegicus [4]; [12]): 250 mg/kg-day
LEL (Rattus norvegicus [4]; duration: 30 days, oral): 125 mg/kg-day
SMILES: O=c1c(-c2ccc(O)cc2)coc2cc(O)cc(O)c12 [Genistein]
NOEL (Rattus norvegicus [3]; subchronic, diet, Wistar, Body Weight Changes: decrease + Food Consumption: decrease + Hematology: RBC decrease, Ret increase, , Hgb decrease + Blood Chemistry: gamma…): 50 mg/kg-day

SMILES: CCNc1nc(Cl)nc(NCC)n1 [Simazine]
NOEL (Rattus norvegicus [4]; Hershberger, duration: 7 days, oral, gavage, Wistar, inactive + Negative + neither + AST wt decreased at 75 and above / doses above 75 associated with >10% decrease in body wt / cite a …): 6.25 mg/kg-day
NOEL (Rattus norvegicus [4]; Hershberger, duration: 10 days, oral, gavage, Sprague-Dawley, inactive + Negative + Negative + neither + AST wt decreased at 75 and above / doses above 75 associated with >10% decrease in body wt): 25 mg/kg-day
LOAEL (Rattus norvegicus [1]; [13]): 5.3 mg/kg-day
NOAEL (Rattus norvegicus [1]; [13]): 0.52 mg/kg-day
NOAEL (Rattus norvegicus [2]; chronic, duration: 2 years, oral, diet, Blood: Hematological effects + Whole body: Decreased weight gain): 0.52 mg/kg-day

SMILES: CC(C)(c1cc(Cl)c(O)c(Cl)c1)c1cc(Cl)c(O)c(Cl)c1 [2,2',6,6'-Tetrachlorobisphenol A]
LEL (Mus musculus; [11]): 20 mg/kg-day

SMILES: S=C([S-])NCCNC(=S)[S-].[Zn+2] [Zineb]
LOAEL (Rattus norvegicus [1]; chronic, oral, M/F, thyroid hyperplasia): 25 mg/kg-day
LOAEL (Rattus norvegicus [2]; chronic, duration: 2 years, oral, diet, hyperplasia): 25 mg/kg-day

LEL (Mus musculus; [14]): 100 mg/kg-day
SMILES: Oc1ccc(C(c2ccc(O)cc2)C(Cl)(Cl)Cl)cc1 [2,2-Bis(4-hydroxyphenyl)-1,1,1-trichloroethane]

SMILES: COP(=O)(NC(C)=O)SC (stereo not drawn) [Acephate]
LEL (Rattus norvegicus [1]; subchronic, duration: 90 days, oral, diet, M, Inhibition of brain ChE): 0.12 mg/kg-day
LOAEL (Rattus norvegicus [2]; subchronic, duration: 13 weeks, oral, diet, Brain: Decreased cholinesterase activity): 0.192 mg/kg-day

LEL (Mus musculus; [14]): 5 mg/kg-day
SMILES: O=C(O)c1ccc(O)cc1 [4-Hydroxybenzoic acid]

SMILES: CC(C)CCCCCCc1ccc(O)cc1 [4-Nonylphenol, branched]
LEL (Mus musculus; [14]): 1000 mg/kg-day
LEL (Rattus norvegicus [4]; duration: 3 days, oral): 190 mg/kg-day
LD50 (Rattus norvegicus [5]; acute): 1880 mg/kg
NOAEL (Rattus norvegicus [5]; reproduction developmental, Sprague-Dawley): 15 mg/kg-day
NOAEL (Rattus norvegicus [5]; short-term, duration: 28 days, Crl:CD(SD) BR): 100 mg/kg-day
NOAEL (Rattus norvegicus [5]; subchronic, duration: 90 days, Sprague-Dawley): 50 mg/kg-day
NOEL (Rattus norvegicus [3]; short-term, duration: 28 days, gavage, Crj:CD, Deaths + Clinical Observation: Salivation, Urinary incontinence Abnormal estrus cycle + Hematology: Ret increase, RBC decrease, Plt increase…): 10 mg/kg-day
